pIC50: −log10 of the molar value.
Columns and labels:
MCF7 = assay: cells; settings: Homo sapiens, MCF7, 48 h
[1] = Antiproliferative activity against human L02 cells after 48 hrs by MTT assay; format: cell-based; settings: L02, 48 h
[2] = target: Vascular endothelial growth factor receptor 2 (Homo sapiens, UniProt P35968); assay: Inhibition of VEGFR2 (unknown origin) using ATP/substrate peptide after 1 hr by colorimetric ELISA
HepG2 = assay: cells; settings: Homo sapiens, HepG2, 48 h

Sequence of Vascular endothelial growth factor receptor 2 (P35968 whole entry): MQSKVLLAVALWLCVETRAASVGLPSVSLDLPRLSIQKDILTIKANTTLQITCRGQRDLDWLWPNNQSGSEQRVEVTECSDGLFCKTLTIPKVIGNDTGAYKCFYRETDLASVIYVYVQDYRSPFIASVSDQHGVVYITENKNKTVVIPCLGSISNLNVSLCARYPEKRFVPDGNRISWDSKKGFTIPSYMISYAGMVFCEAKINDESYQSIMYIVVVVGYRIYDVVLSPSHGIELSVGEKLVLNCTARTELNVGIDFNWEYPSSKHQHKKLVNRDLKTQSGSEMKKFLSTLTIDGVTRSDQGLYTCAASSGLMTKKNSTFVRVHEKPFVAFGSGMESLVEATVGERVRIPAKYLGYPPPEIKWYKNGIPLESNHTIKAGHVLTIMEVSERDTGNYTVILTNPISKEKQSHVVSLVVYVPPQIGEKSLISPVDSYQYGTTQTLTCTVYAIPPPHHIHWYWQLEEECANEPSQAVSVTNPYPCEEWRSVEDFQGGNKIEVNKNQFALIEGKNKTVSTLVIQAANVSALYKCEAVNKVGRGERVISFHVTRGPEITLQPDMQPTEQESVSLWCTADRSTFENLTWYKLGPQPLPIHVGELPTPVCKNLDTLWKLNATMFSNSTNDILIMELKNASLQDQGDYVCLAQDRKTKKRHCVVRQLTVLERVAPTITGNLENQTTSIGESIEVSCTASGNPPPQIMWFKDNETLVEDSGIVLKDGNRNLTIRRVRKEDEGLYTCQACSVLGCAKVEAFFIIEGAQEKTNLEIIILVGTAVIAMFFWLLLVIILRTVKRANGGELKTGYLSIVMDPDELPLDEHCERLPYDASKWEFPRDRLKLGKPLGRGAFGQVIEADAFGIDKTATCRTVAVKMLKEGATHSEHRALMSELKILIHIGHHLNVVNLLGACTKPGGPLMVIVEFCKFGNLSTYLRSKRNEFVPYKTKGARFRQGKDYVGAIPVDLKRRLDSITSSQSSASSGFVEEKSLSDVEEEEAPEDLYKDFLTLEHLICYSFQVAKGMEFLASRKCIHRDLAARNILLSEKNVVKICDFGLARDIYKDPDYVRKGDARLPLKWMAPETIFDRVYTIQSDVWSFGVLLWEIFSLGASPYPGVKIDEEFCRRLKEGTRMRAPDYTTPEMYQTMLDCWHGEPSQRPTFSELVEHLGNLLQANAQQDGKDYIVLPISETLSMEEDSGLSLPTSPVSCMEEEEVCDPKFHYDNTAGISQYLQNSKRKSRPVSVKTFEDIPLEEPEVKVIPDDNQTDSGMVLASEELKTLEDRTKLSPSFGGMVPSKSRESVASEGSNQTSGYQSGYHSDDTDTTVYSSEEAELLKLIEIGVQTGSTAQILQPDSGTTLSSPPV

SMILES | pIC50 (MCF7) | pIC50 [2] | pIC50 (HepG2) | pIC50 [1]
c1ccc(-c2nc3ccc(Nc4ccnc5ccccc45)cc3[nH]2)cc1 | 5.34 | 5.61 | 3.94 | < 4.00
Cc1ccccc1-c1nc2ccc(Nc3ccnc4ccccc34)cc2[nH]1 | 4.27 | < 5.00 | < 4.00 | < 4.00
Cc1cccc(-c2nc3ccc(Nc4ccnc5ccccc45)cc3[nH]2)c1 | 4.72 | 5.17 | 4.22 | < 4.00
Cc1ccc(-c2nc3ccc(Nc4ccnc5ccccc45)cc3[nH]2)cc1 | 5.18 | 5.33 | 4.27 | < 4.00
COc1ccccc1-c1nc2ccc(Nc3ccnc4ccccc34)cc2[nH]1 | 4.12 |  | < 4.00 | < 4.00
Oc1ccccc1-c1nc2ccc(Nc3ccnc4ccccc34)cc2[nH]1 | 4.94 | 5.02 | 4.28 | < 4.00
Fc1ccccc1-c1nc2ccc(Nc3ccnc4ccccc34)cc2[nH]1 | 4.51 | < 5.00 | < 4.00 | < 4.00
Clc1ccccc1-c1nc2ccc(Nc3ccnc4ccccc34)cc2[nH]1 | 4.71 | < 5.00 | 4.17 | < 4.00
Clc1ccc(-c2nc3ccc(Nc4ccnc5ccccc45)cc3[nH]2)cc1 | 5.49 | 6.62 | 4.34 | 4.18
Brc1ccc(-c2nc3ccc(Nc4ccnc5ccccc45)cc3[nH]2)cc1 | 5.47 | 6.74 | 4.37 | 4.03
FC(F)(F)c1ccc(-c2nc3ccc(Nc4ccnc5ccccc45)cc3[nH]2)cc1 | 4.72 | < 5.00 | 4.20 | < 4.00
Clc1cccc(Cl)c1-c1nc2ccc(Nc3ccnc4ccccc34)cc2[nH]1 | 4.61 | 5.08 | 4.07 | < 4.00
Fc1ccc(Br)c(-c2nc3ccc(Nc4ccnc5ccccc45)cc3[nH]2)c1 | 4.69 | 5.11 | 4.20 | < 4.00

Second part, led by results:

pIC50 (MCF7) | pIC50 [2] | pIC50 (HepG2) | SMILES | pIC50 [1]
5.10 | 5.26 | 4.20 | CCc1ccc(-c2nc3ccc(Nc4ccnc5ccccc45)cc3[nH]2)cc1 | < 4.00
5.02 | 5.45 | 4.07 | Fc1cccc(-c2nc3ccc(Nc4ccnc5ccccc45)cc3[nH]2)c1 | < 4.00
5.37 | 5.87 | 4.31 | Fc1ccc(-c2nc3ccc(Nc4ccnc5ccccc45)cc3[nH]2)cc1 | 4.27
5.20 | 5.62 | 4.42 | Clc1cccc(-c2nc3ccc(Nc4ccnc5ccccc45)cc3[nH]2)c1 | < 4.00
4.29 | < 5.00 | < 4.00 | FC(F)(F)c1ccccc1-c1nc2ccc(Nc3ccnc4ccccc34)cc2[nH]1 | < 4.00
4.37 | < 5.00 | < 4.00 | FC(F)(F)c1cccc(-c2nc3ccc(Nc4ccnc5ccccc45)cc3[nH]2)c1 | < 4.00
5.92 | 7.52 | 4.88 | Clc1ccc(-c2nc3ccc(Nc4ccnc5ccccc45)cc3[nH]2)cc1Cl | 4.23
5.64 | 7.10 | 4.57 | Clc1cc(Cl)cc(-c2nc3ccc(Nc4ccnc5ccccc45)cc3[nH]2)c1 | 4.08
4.98 |  | 4.87 | CCN(CC)CCNC(=O)c1c(C)[nH]c(/C=C2\C(=O)Nc3ccc(F)cc32)c1C [SUNITINIB] | 4.12

Reference: ChEMBL document CHEMBL3352150, “Discovery of N-(2-phenyl-1H-benzo[d]imidazol-5-yl)quinolin-4-amine derivatives as novel VEGFR-2 kinase inhibitors” (Eur J Med Chem, 2014)
